Results: patent US12441679B2, “Acrylamide-substituted indane compounds and therapeutic use thereof” (Sanofi, priority 2020, dated 2025)
pIC50: −log10 of the molar value.

System: YAP1-TEAD and TAZ-TEAD activity (TEAD responsive promoter element)
Assay: TEAD-Luciferase Reporter Assay (8XGTIIC-Luciferase construct stably integrated in tumor cell lines)
Assay type: cell-based, human
Details: Homo sapiens; 8XGTIIC-Luciferase reporter in tumor cell lines, 48 hrs compound treatment, 10 doses 1-10000 nM
Source text: TEAD-Luciferase Reporter Assay
Luciferase-based gene reporter assays were used, employing the TEAD responsive promoter element that are stably integrated to different human tumor cell lines in order to monitor YAP1-TEAD and TAZ-TEAD activity and to study YAP1/TAZ-TEAD activity modulation by small molecule compounds. Luciferase-based gene reporter assays employing the GAPDH promoter element and stably integrated to different human tumor cell lines are used as counter screen control cell lines.
Tumor cell lines with stable integration of the 8XGTIIC-Luciferase construct (Dupont et al., Nature 2011) or the GAPDH-Luciferase control plasmid, are seeded in culture medium in 96-well plates at a density of 8000 cells/well. Following an overnight incubation in a 37° C., 5% CO2 growth chamber, cells are treated with compounds described above at 10 doses ranging between 1 and 10000 nM for 48 hrs. After compound incubation, cells are lysed with Bright-Glo Luciferase Assay System (Promega E2620) and luciferase activity is measured using a luminescent plate reader.
The inhibitory activity of the compounds with respect to luciferase activity is given by the concentration which inhibits 50% of activity of non-treated cells. IC50s are determined with a nonlinear regression model on XLfit software analysis (IDBS, UK).

SMILES | pIC50
C=CC(=O)Nc1ccc2c(c1)[C@@H](Nc1cccc(C(F)(F)F)c1)[C@H](O)C2 (racemic) [Example 96, N-[rac-(2R,3R)-2-hydroxy-3-[3-(trifluoromethyl)anilino]-2,3-dihydro-1H-inden-5-yl]acrylamide] | 5.70
C=CC(=O)Nc1ccc2c(c1)CC(N[C@H]1CC[C@@H](C(F)(F)F)CC1)C2 (relative stereo) [Example 26, N-(2-(((cis)-4-(trifluoromethyl)cyclohexyl)amino)-2,3-dihydro-1H-inden-5-yl)acrylamide] | < 5.00
C=CC(=O)Nc1ccc2c(c1)CC(N[C@H]1CC[C@H](C(F)(F)F)CC1)C2 (relative stereo) [Example 27, N-(2-(((trans)-4-(trifluoromethyl)cyclohexyl)amino)-2,3-dihydro-1H-inden-5-yl)acrylamide] | < 5.00
C=CC(=O)Nc1ccc2c(c1)C(O[C@H]1CC[C@H](C(F)(F)F)CC1)CC2 (relative stereo) [Example 36, N-(3-(((trans)-4-(trifluoromethyl)cyclohexyl)oxy)-2,3-dihydro-1H-inden-5-yl)acrylamide] | 7.00
C=CC(=O)Nc1ccc2c(c1)[C@@H](OC)C[C@H]2Nc1cccc(C(F)(F)F)c1 (relative stereo) [Example 94, N-[(cis)-3-methoxy-1-[3-(trifluoromethyl)anilino]-2,3-dihydro-1H-inden-5-yl]acrylamide] | 6.40
C=CC(=O)Nc1ccc2c(c1)C[C@@H](O)[C@@H]2Nc1cccc(C(F)(F)F)c1 (relative stereo) [Example 95, N-[(trans)-2-hydroxy-1-[3-(trifluoromethyl)anilino]-2,3-dihydro-1H-inden-5-yl]acrylamide] | 6.19
C=CC(=O)Nc1ccc2c(c1)C[C@@H](Nc1cccc(F)c1)C2 (single isomer, unassigned) [Example 48] | 7.16
C=CC(=O)Nc1ccc2c(c1)C[C@H](Nc1cccc(F)c1)C2 (single isomer, unassigned) [Example 49] | 6.98
C=CC(=O)Nc1ccc2c(c1)C[C@H](Nc1cccc(C(F)(F)F)c1)C2 (single isomer, unassigned) [Example 50] | 7.12
C=CC(=O)Nc1ccc2c(c1)C[C@@H](Nc1cccc(C(F)(F)F)c1)C2 (single isomer, unassigned) [Example 51] | 5.36
C=CC(=O)Nc1ccc2c(c1)CC[C@H]2Nc1ccc(C(F)(F)F)cc1 (single isomer, unassigned) [Example 55] | 7.42
C=CC(=O)Nc1ccc2c(c1)CC[C@@H]2Nc1ccc(C(F)(F)F)cc1 (single isomer, unassigned) [Example 56] | 7.36
C=CC(=O)Nc1ccc2c(c1)CC[C@@H]2Nc1cc(C(F)(F)F)ccn1 (single isomer, unassigned) [Example 57] | 6.87
C=CC(=O)Nc1ccc2c(c1)CC[C@H]2Nc1cc(C(F)(F)F)ccn1 (single isomer, unassigned) [Example 58] | 6.67
C=CC(=O)Nc1ccc2c(c1)CC[C@@H]2Oc1cccc(C(F)(F)F)c1 (single isomer, unassigned) [Example 84] | 6.82
C=CC(=O)Nc1ccc2c(c1)CC[C@H]2Oc1cccc(C(F)(F)F)c1 (single isomer, unassigned) [Example 85] | 7.38
C=CC(=O)Nc1ccc2c(c1)[C@@H](Oc1ccc(C(F)(F)F)cc1)CC2 (single isomer, unassigned) [Example 86] | 6.87
C=CC(=O)Nc1ccc2c(c1)[C@H](Oc1ccc(C(F)(F)F)cc1)CC2 (single isomer, unassigned) [Example 87] | 7.55
C=CC(=O)Nc1ccc2c(c1)CCC2Nc1cccc(C(F)(F)F)c1 (stereo not drawn) [Example 1, N-(1-((3-(trifluoromethyl)phenyl)amino)-2,3-dihydro-1H-inden-5-yl)acrylamide] | 7.14
C=CC(=O)N(C)c1ccc2c(c1)CCC2Nc1cccc(C(F)(F)F)c1 (stereo not drawn) [Example 4, N-methyl-N-(1-((3-(trifluoromethyl)phenyl)amino)-2,3-dihydro-1H-inden-5-yl)acrylamide] | 6.85
C=CC(=O)Nc1ccc2c(c1)CCC2Nc1ccc(F)cc1 (stereo not drawn) [Example 5, N-(1-((4-fluorophenyl)amino)-2,3-dihydro-1H-inden-5-yl)acrylamide] | 7.54
C=CC(=O)Nc1ccc2c(c1)CC[C@H]2Nc1ccc(F)cc1 [Example 7, (R)—N-(1-((4-fluorophenyl)amino)-2,3-dihydro-1H-inden-5-yl)acrylamide] | 7.55
C=CC(=O)Nc1ccc2c(c1)CCC2Nc1cccc(F)c1 (stereo not drawn) [Example 8, N-(1-((3-fluorophenyl)amino)-2,3-dihydro-1H-inden-5-yl)acrylamide] | 6.88

SMILES | pIC50
C=CC(=O)Nc1ccc2c(c1)CCC2Nc1cc(F)cc(F)c1 (stereo not drawn) [Example 9, N-(1-((3,5-difluorophenyl)amino)-2,3-dihydro-1H-inden-5-yl)acrylamide] | 6.78
C=CC(=O)Nc1ccc2c(c1)CCC2Nc1ccc(C(F)(F)F)cc1 (stereo not drawn) [Example 10, N-(1-((4-(trifluoromethyl)phenyl)amino)-2,3-dihydro-1H-inden-5-yl)acrylamide] | 7.36
C=CC(=O)Nc1ccc2c(c1)C(Nc1cccc(C(F)(F)F)c1)CC2 (stereo not drawn) [Example 11, N-(3-((3-(trifluoromethyl)phenyl)amino)-2,3-dihydro-1H-inden-5-yl)acrylamide] | 7.43
C=CC(=O)Nc1ccc2c(c1)C(Nc1ccc(C(F)(F)F)cc1)CC2 (stereo not drawn) [Example 12, N-(3-((4-(trifluoromethyl)phenyl)amino)-2,3-dihydro-1H-inden-5-yl)acrylamide] | 7.26
C=CC(=O)Nc1ccc2c(c1)C(Nc1ccc(F)c(F)c1)CC2 (stereo not drawn) [Example 13, N-(3-((3,4-difluorophenyl)amino)-2,3-dihydro-1H-inden-5-yl)acrylamide] | 7.43
C=CC(=O)Nc1ccc2c(c1)C(Nc1cccc(F)c1)CC2 (stereo not drawn) [Example 14, N-(3-((3-fluorophenyl)amino)-2,3-dihydro-1H-inden-5-yl)acrylamide] | 7.27
C=CC(=O)Nc1ccc2c(c1)C(Nc1ccc(F)cc1)CC2 (stereo not drawn) [Example 15, N-(3-((4-fluorophenyl)amino)-2,3-dihydro-1H-inden-5-yl)acrylamide] | 7.32
C=CC(=O)Nc1ccc2c(c1)CCC2Nc1ccc(F)c(F)c1 (stereo not drawn) [Example 16, N-(1-((3,4-difluorophenyl)amino)-2,3-dihydro-1H-inden-5-yl)acrylamide] | 7.42
C=CC(=O)Nc1ccc2c(c1)CCC2Nc1cccc(OC)c1 (stereo not drawn) [Example 17, N-(1-((3-methoxyphenyl)amino)-2,3-dihydro-1H-inden-5-yl)acrylamide] | < 5.00
C=CC(=O)Nc1ccc2c(c1)CCC2Nc1cccc(C)c1 (stereo not drawn) [Example 18, N-(1-(m-tolylamino)-2,3-dihydro-1H-inden-5-yl)acrylamide] | 6.67
C=CC(=O)Nc1ccc2c(c1)CCC2Nc1ccc(F)nc1 (stereo not drawn) [Example 19, N-(1-((6-fluoropyridin-3-yl)amino)-2,3-dihydro-1H-inden-5-yl)acrylamide] | 6.30
C=CC(=O)Nc1ccc2c(c1)CCC2Nc1ccc(C(F)(F)F)nc1 (stereo not drawn) [Example 20, N-(1-((6-(trifluoromethyl)pyridin-3-yl)amino)-2,3-dihydro-1H-inden-5-yl)acrylamide] | 6.45
C=CC(=O)Nc1ccc2c(c1)CCC2Nc1ccc(F)cn1 (stereo not drawn) [Example 21, N-(1-((5-fluoropyridin-2-yl)amino)-2,3-dihydro-1H-inden-5-yl)acrylamide] | 6.58
C=CC(=O)Nc1ccc2c(c1)CCC2Nc1cccc(C(=O)OC)c1 (stereo not drawn) [Example 22, methyl-3-((5-acrylamido-2,3-dihydro-1H-inden-1-yl)amino)benzoate] | < 5.00
C=CC(=O)Nc1ccc2c(c1)C(NCc1ccccc1)CC2 (stereo not drawn) [Example 23, N-(3-(benzylamino)-2,3-dihydro-1H-inden-5-yl)acrylamide] | 5.02
C=CC(=O)Nc1ccc2c(c1)CCC2NCc1cccc(C(F)(F)F)c1 (stereo not drawn) [Example 24, N-(1-((3-(trifluoromethyl)benzyl)amino)-2,3-dihydro-1H-inden-5-yl)acrylamide] | 5.09
C=CC(=O)Nc1ccc2c(c1)CCC2NCc1ccc(C(F)(F)F)cc1 (stereo not drawn) [Example 25, N-(1-((4-(trifluoromethyl)benzyl)amino)-2,3-dihydro-1H-inden-5-yl)acrylamide] | 5.08
C=CC(=O)Nc1ccc2c(c1)CC(NC1CCC(F)(F)CC1)C2 (stereo not drawn) [Example 28, N-(2-((4,4-difluorocyclohexyl)amino)-2,3-dihydro-1H-inden-5-yl)acrylamide] | 5.40
C=CC(=O)Nc1ccc2c(c1)CC(NCCCC(F)(F)F)C2 (stereo not drawn) [Example 29, N-(2-((4,4,4-trifluorobutyl)amino)-2,3-dihydro-1H-inden-5-yl)acrylamide] | < 5.00
C=CC(=O)Nc1ccc2c(c1)CC(NCCCF)C2 (stereo not drawn) [Example 30, N-(2-((3-fluoropropyl)amino)-2,3-dihydro-1H-inden-5-yl)acrylamide] | < 5.00
C=CC(=O)Nc1ccc2c(c1)CC(Nc1cccc(F)c1)C2 (stereo not drawn) [Example 31, N-(2-((3-fluorophenyl)amino)-2,3-dihydro-1H-inden-5-yl)acrylamide] | 7.70
C=CC(=O)Nc1ccc2c(c1)CC(Nc1cccc(C(F)(F)F)c1)C2 (stereo not drawn) [Example 32, N-(2-((3-(trifluoromethyl)phenyl)amino)-2,3-dihydro-1H-inden-5-yl)acrylamide] | 7.19
